Laboratory results: patent US8106077B2, “Compounds and methods for modulating FXR” (Eli Lilly and Company, priority 2007, dated 2012)

Key:
[1] = target: T1, FXR (Homo sapiens, UniProt Q96RI1); test: bDNA assay for SHP mRNA; type: cell-based; conditions: human hepatocarcinoma Huh7 cells, 24 hours, bDNA signal; read-out: SHP gene activation EC50
T1 construct: Plate human hepatocarcinoma Huh7 cells grown in DMEM:F12 with 10% fetal bovine serum; endogenous in cells; host or cells: Huh7 (human hepatocarcinoma)
T1 sequence (Q96RI1 1-486): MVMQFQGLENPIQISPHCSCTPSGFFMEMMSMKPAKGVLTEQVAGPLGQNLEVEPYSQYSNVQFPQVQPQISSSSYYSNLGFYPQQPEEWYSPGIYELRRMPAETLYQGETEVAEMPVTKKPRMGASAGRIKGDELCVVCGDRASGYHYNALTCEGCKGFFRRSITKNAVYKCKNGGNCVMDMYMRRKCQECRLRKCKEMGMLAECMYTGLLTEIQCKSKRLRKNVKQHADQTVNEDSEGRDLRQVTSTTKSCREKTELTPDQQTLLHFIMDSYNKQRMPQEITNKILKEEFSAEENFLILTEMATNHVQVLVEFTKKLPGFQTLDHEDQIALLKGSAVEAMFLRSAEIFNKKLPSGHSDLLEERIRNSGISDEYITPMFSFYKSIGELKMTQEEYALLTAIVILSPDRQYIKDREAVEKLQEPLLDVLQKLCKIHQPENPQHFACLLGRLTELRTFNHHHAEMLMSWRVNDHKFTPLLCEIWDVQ
From the text: FXR is a key, direct transcriptional regulator of the Small Heterodimer Partner (SHP) gene, accession number NM_021969, an atypical member of the nuclear receptor family that lacks a DNA-binding domain. SHP interacts with several conventional and orphan members of the nuclear receptor superfamily, including retinoid receptors and thyroid hormone receptor. SHP inhibits transactivation potential of superfamily members with which it interacts. […] Since FXR directly transactivates transcription of the SHP gene, the SHP branched DNA method (bDNA) quantitates FXR activation by ligands. Thus, increased expression of SHP mRNA, as determined by increase bDNA signal, signifies engagement of FXR by an agonist.
Plate human hepatocarcinoma Huh7 cells grown in DMEM:F12 with 10% fetal bovine serum and in 96 well plate at the density of 1×10^5/well. After overnight incubation, treat the cells with test compounds at various concentrations for 24 hours. […]
Incubate the lysis buffer for 15-minute at 37° C., then transfer 100 μL of the lysate from each well to the corresponding wells of the capture plate. […] Label the mRNA to be measured by addition of 100 μL QuantiGene® label probe working buffer then incubate for 60 minutes at 46° C. […] Incubate the plates at 37° C. for up to 30 minutes and then read on a luminometer (Packard Fusion Alpha, 1 second detection) to detect the luminescent signal. […]

[2] = system: LDLR−/− mice; test: LDLR−/− serum lipid modulation; type: in vivo; conditions: male LDLR−/− mice on western diet, 10 mg/kg, oral gavage once daily for seven days
Description: Acclimate animals for two weeks prior to study initiation. House mice individually in polycarbonate cages with filter tops, and maintain mice on a 12:12 hour light-dark cycle (lights on at 6:00 AM) at 21° C. Provide deionized water ad libitum and maintain for two weeks on ‘western diet’ TD 88137 Diet (42% fat, 0.15% cholesterol, Harlan Teklad) ad libitum. Optimize groups of five ten-week-old male LDLR−/− mice based on serum triglyceride and cholesterol levels. Dose groups once daily by oral gavage with various doses of the test compound dissolved in 5% EtOH/5% Solutol in NaCMC (1%), SLS (0.5%), antifoam (0.05%), Povidone (0.085%) for seven days. At the end of the seven-day dosing period, collect blood by cardiac puncture after asphyxiation in a CO2 chamber. […] Lipoproteins were separated by fast protein liquid chromatography, and cholesterol was quantitated with an in-line detection system. […] The colored product produced in the presence of cholesterol was monitored in the flow stream at 505 nm, and the analog voltage from the monitor was converted to a digital signal for collection and analysis. The change in voltage corresponding to change in cholesterol concentration was plotted vs. time, and the area under the curve corresponding to the elution of VLDL-C and HDL-C was calculated using Turbochrome (version 4.12F12) software from PerkinElmer (Norwalk, Conn.). […]

| Structure (SMILES) | EC50 [1] [µM] | lowering of total cholesterol [2] [%] | lowering of triglycerides [2] [%] |
| --- | --- | --- | --- |
| Cc1cc(OCc2c(C(C)C)nnn2-c2c(Cl)cccc2Cl)ccc1N(C)Cc1ccc(C(=O)O)cc1 [Example 42, 4-[({4-[5-Isopropyl-3-(2,6-Dichloro-phenyl)-3H-[1,2,3]triazol-4-ylmethoxy]-2-methyl-phenyl}-methyl-amino)-methyl]-benzoic acid] | ~0.37 | – | – |
| Cc1cc(CN(C)c2ccc(OCc3c(C(C)C)nnn3-c3c(Cl)cccc3Cl)cc2C)ccc1C(=O)O [Example 13, 4-[({4-[5-Isopropyl-3-(2,6-dichloro-phenyl)-3H-[1,2,3]triazol-4-ylmethoxy]-2-methyl-phenyl}-methyl-amino)-methyl]-2-methyl-benzoic acid] | – | 60 | 63 |
